Assay [1] deals with Mitogen-activated protein kinase 1 (Homo sapiens, UniProt P28482). The experiment in a line: DRUGMATRIX: Protein Serine/Threonine Kinase, ERK2 enzyme inhibition (substrate: Myelin Basic Protein). The following applies: Not Active = under 50% inhibition at 10 µM. Also noted: species or system Escherichia coli.
For assay [2], the target named is T1, 5-hydroxytryptamine receptor 2C (Homo sapiens, UniProt P28335).
T1 sequence (P28335 whole entry): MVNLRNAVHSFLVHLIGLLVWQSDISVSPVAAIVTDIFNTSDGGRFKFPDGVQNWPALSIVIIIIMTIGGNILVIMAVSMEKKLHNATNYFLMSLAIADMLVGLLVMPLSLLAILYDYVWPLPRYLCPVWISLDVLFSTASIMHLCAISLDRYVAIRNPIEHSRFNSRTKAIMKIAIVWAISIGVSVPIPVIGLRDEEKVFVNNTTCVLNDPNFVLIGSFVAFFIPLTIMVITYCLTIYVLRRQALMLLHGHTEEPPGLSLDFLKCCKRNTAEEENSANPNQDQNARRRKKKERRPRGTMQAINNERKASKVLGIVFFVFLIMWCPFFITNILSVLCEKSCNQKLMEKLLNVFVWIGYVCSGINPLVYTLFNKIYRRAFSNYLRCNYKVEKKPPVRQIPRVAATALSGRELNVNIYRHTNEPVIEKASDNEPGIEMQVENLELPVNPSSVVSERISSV
The experiment in a line: DRUGMATRIX: Serotonin (5-Hydroxytryptamine) 5-HT2C radioligand binding (ligand: [3H] Mesulergine). The format is cell membranes, CHO-K1, Membrane. The following applies: Not Active = under 50% inhibition at 10 µM; for Ki: read-out: Ki.

For assay [3], the target named is Sodium-dependent noradrenaline transporter (Homo sapiens, UniProt P23975). The experiment in a line: DRUGMATRIX: Norepinephrine Transporter radioligand binding (ligand: [125I] RTI-55). The format is cell membranes, MDCK, Membrane. The following applies: Not Active = under 50% inhibition at 10 µM.
For assay [4], the target named is T2, 5-hydroxytryptamine receptor 1A (Rattus norvegicus, UniProt P19327). Also: in other assays of this panel Not Active means under 50% inhibition at 10 µM.
T2 sequence (P19327 whole entry): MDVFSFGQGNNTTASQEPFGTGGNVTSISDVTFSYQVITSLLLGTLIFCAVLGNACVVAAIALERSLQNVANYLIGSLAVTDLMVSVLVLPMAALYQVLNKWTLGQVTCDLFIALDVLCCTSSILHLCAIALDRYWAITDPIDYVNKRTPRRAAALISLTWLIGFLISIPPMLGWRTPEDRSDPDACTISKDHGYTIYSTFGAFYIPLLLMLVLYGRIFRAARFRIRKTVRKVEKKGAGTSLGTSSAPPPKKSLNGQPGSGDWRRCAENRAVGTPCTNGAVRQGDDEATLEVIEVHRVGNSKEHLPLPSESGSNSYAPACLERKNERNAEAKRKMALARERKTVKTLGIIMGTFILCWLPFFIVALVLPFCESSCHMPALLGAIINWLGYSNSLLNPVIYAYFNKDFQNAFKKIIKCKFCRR
The format is cell membranes, CHO-K1, Membrane.

A further assay has as its target Histamine H2 receptor (Homo sapiens, UniProt P25021). The format is cell membranes, CHO-K1, Membrane. Also: in other assays of this panel Not Active means under 50% inhibition at 10 µM.
Assay [5] is described as follows: DRUGMATRIX: Tumor Necrosis Factor (TNF), Non-Selective radioligand binding (ligand: [125I] TNF-alpha). As to conditions: u-937; Not Active = under 50% inhibition at 10 µM. The format is cell membranes, Membrane.

Among the data in ChEMBL document CHEMBL1909046, “DrugMatrix in vitro pharmacology data” are IC50 and Ki values, retold here.

Structures are written as SMILES.

Chain of Histamine H2 receptor (P25021 whole entry): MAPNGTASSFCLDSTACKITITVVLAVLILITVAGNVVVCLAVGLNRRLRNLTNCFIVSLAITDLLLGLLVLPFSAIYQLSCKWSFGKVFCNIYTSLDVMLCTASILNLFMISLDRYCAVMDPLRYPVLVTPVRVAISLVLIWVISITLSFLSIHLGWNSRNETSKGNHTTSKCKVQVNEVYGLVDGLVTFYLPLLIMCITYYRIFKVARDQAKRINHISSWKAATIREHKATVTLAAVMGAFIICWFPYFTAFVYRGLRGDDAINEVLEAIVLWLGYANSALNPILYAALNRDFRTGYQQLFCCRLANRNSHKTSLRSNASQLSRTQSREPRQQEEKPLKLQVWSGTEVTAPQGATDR
Chain of Mitogen-activated protein kinase 1 (P28482 whole entry): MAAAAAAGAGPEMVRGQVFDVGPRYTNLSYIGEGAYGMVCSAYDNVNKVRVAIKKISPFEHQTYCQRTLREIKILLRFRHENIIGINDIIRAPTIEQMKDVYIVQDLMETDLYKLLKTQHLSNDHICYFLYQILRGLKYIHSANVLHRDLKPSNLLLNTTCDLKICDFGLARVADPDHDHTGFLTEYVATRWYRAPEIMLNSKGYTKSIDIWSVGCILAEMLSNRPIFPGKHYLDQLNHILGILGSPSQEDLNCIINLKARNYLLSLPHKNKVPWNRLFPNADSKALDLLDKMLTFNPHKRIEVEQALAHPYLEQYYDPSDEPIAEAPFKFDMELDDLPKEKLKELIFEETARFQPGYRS
Chain of Sodium-dependent noradrenaline transporter (P23975 whole entry): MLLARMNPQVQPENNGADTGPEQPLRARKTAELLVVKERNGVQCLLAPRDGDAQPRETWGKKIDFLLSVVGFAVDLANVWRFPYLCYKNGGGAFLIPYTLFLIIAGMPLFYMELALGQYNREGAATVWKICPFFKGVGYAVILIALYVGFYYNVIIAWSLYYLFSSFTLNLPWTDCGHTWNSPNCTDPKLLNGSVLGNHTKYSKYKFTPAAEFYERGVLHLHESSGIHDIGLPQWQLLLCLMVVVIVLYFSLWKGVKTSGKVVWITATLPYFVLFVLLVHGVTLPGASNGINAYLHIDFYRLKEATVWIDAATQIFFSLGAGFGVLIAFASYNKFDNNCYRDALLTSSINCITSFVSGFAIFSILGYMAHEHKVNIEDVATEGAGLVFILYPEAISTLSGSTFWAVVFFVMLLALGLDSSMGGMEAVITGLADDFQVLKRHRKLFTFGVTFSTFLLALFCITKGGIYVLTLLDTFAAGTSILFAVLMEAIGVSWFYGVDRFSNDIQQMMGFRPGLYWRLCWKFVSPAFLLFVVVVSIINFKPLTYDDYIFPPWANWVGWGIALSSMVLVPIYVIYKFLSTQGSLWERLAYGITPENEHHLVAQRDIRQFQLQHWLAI

One may read the IC50 as the concentration at which inhibition is half-maximal. The term Ki denotes a dissociation constant, usually derived from enzyme kinetics or from competition with a known ligand. In the case of `CN1CCN(c2c(F)cc3c(=O)c(C(=O)O)cn(CCF)c3c2F)CC1` [FLEROXACIN], the IC50 entry (in assay [1]; in assay [2] (cho-k1); in assay [3] (mdck); in assay [4] (cho-k1); on Histamine H2 receptor (cho-k1); in assay [5]) was “Not Active” in each case. Besides, the Ki entry in assay [5] is “Not Active”.

As for `O=c1[nH]c(=O)n([C@H]2C[C@H](O)[C@@H](CO)O2)cc1F` [FLOXURIDINE], the IC50 entry (in assay [1]; in assay [2] (cho-k1); in assay [3] (mdck); in assay [4] (cho-k1); against Histamine H2 receptor (cho-k1); in assay [5]) was “Not Active” in each case. In assay [5], the Ki result is reported as “Not Active”.

Take `COC(=O)Nc1nc2cc(C(=O)c3ccc(F)cc3)ccc2[nH]1` [FLUBENDAZOLE]: the 50% inhibitory concentration (IC50) entry (in assay [1]; in assay [2] (cho-k1); in assay [3] (mdck); in assay [4] (cho-k1); against Histamine H2 receptor (cho-k1); in assay [5]) was “Not Active” each time. Also, the Ki entry in assay [5] was “Not Active”.

As to `CC(=O)OCC(=O)[C@@]1(O)CC[C@H]2[C@@H]3CCC4=CC(=O)CC[C@]4(C)[C@@]3(F)[C@@H](O)C[C@@]21C` [FLUDROCORTISONE ACETATE], the IC50 entry (in assay [1]; in assay [2] (cho-k1); in assay [3] (mdck); in assay [4] (cho-k1); against Histamine H2 receptor (cho-k1); in assay [5]) was “Not Active” each time. For the same molecule, in assay [5], the Ki result is reported as “Not Active”.

On to `CCOC(=O)c1ncn2c1CN(C)C(=O)c1cc(F)ccc1-2` [FLUMAZENIL], for which the IC50 entry (in assay [1]; in assay [2] (cho-k1); in assay [3] (mdck); in assay [4] (cho-k1); against Histamine H2 receptor (cho-k1); in assay [5]) was “Not Active” each time. Moreover, the Ki entry in assay [5] is on record as “Not Active”.

As to `CC(=O)OCC(=O)[C@@]12OC(C)(C)O[C@@H]1C[C@H]1[C@@H]3C[C@H](F)C4=CC(=O)C=C[C@]4(C)[C@@]3(F)[C@@H](O)C[C@@]12C` [FLUOCINONIDE], the IC50 entry (in assay [1]; in assay [2] (cho-k1); in assay [3] (mdck); in assay [4] (cho-k1); at Histamine H2 receptor (cho-k1); in assay [5]) was “Not Active” each time. Moreover, in assay [5], the Ki result is given as “Not Active”.

Take `O=C(O)P(=O)(O)O` [FOSCARNET]: the IC50 entry (in assay [1]; in assay [2] (cho-k1); in assay [3] (mdck); in assay [4] (cho-k1); at Histamine H2 receptor (cho-k1); in assay [5]) was “Not Active” in each case. Besides, the Ki result in assay [5] was “Not Active”.

On to `Cc1ccc(C)c(OCCCC(C)(C)C(=O)O)c1` [GEMFIBROZIL], for which the IC50 entry (in assay [1]; in assay [2] (cho-k1); in assay [3] (mdck); in assay [4] (cho-k1); at Histamine H2 receptor (cho-k1); in assay [5]) was “Not Active” in each case. For the same molecule, the Ki result in assay [5] is reported as “Not Active”.

As to `O=c1c(-c2ccc(O)cc2)coc2cc(O)cc(O)c12` [GENISTEIN], the IC50 result in assay [1] was “Not Active”; in assay [2] (read-out: IC50), 14900 nM; in assay [3] (mdck) it was “Not Active”; in assay [4] (cho-k1), “Not Active”; against Histamine H2 receptor (cho-k1), “Not Active”; in assay [5], “Not Active”. The results for the Ki in assay [2] and in assay [5] were 7810 nM and “Not Active”, respectively.

As for `CCC1=C(C)CN(C(=O)NCCc2ccc(S(=O)(=O)NC(=O)N[C@H]3CC[C@H](C)CC3)cc2)C1=O` [GLIMEPIRIDE], the IC50 entry (in assay [1]; in assay [2] (cho-k1); in assay [3] (mdck); in assay [4] (cho-k1); on Histamine H2 receptor (cho-k1); in assay [5]) was “Not Active” in each case. Also, the inhibition constant (Ki) entry in assay [5] is on record as “Not Active”.

On to `Nc1cc(-c2ccncc2)c[nH]c1=O` [INAMRINONE], for which the IC50 entry (in assay [1]; in assay [2] (cho-k1); in assay [3] (mdck); in assay [4] (cho-k1); at Histamine H2 receptor (cho-k1); in assay [5]) was “Not Active” in each case. Besides, in assay [5], the inhibitory constant (Ki) result is recorded as “Not Active”.

Turning to `CCCCC1=NC2(CCCC2)C(=O)N1Cc1ccc(-c2ccccc2-c2nnn[nH]2)cc1` [IRBESARTAN], the concentration for half-maximal inhibition (IC50) result (in assay [1]; in assay [2] (cho-k1); in assay [3] (mdck); in assay [4] (cho-k1); against Histamine H2 receptor (cho-k1); in assay [5]) was “Not Active” in each case. Also, the Ki entry in assay [5] is “Not Active”.

With `CN1CCC(=C2c3ccccc3CC(=O)c3sccc32)CC1` [KETOTIFEN], the IC50 entry in assay [1] is “Not Active”; in assay [2] (read-out: IC50) it was 160 nM; in assay [3] (mdck) it was “Not Active”; in assay [4] (read-out: IC50), 2540 nM; on Histamine H2 receptor (read-out: IC50), 4130 nM; in assay [5], “Not Active”. For the same molecule, the Ki in assay [2] was 84 nM; in assay [4] (read-out: Ki), 1450 nM; on Histamine H2 receptor (read-out: Ki) it was 4060 nM; in assay [5], “Not Active”.

With `N[C@@H](Cn1ccc(=O)c(O)c1)C(=O)O` [L-MIMOSINE], the IC50 result (in assay [1]; in assay [2] (cho-k1); in assay [3] (mdck); in assay [4] (cho-k1); against Histamine H2 receptor (cho-k1); in assay [5]) was “Not Active” in each case. The Ki entry in assay [5] is given as “Not Active”.

For `C[N+](C)(C)C[C@H](O)CC(=O)[O-]` [LEVOCARNITINE], the IC50 result (in assay [1]; in assay [2] (cho-k1); in assay [3] (mdck); in assay [4] (cho-k1); against Histamine H2 receptor (cho-k1); in assay [5]) was “Not Active” in each case. Besides, in assay [5], the Ki result was “Not Active”.

With `CCn1cc(C(=O)O)c(=O)c2cc(F)c(N3CCNC(C)C3)c(F)c21` (stereo not given) [LOMEFLOXACIN], the IC50 result (in assay [1]; in assay [2] (cho-k1); in assay [3] (mdck); in assay [4] (cho-k1); against Histamine H2 receptor (cho-k1); in assay [5]) was “Not Active” each time. The Ki entry in assay [5] is reported as “Not Active”.

Turning to `CN1CCCC(CN2c3ccccc3Sc3ccccc32)C1` (stereo not given) [MEPAZINE], the IC50 result in assay [1] was “Not Active”; in assay [2] (read-out: IC50) it was 495 nM; in assay [3] (read-out: IC50) it was 1880 nM; in assay [4] (cho-k1), “Not Active”; against Histamine H2 receptor (cho-k1) it was “Not Active”; in assay [5], “Not Active”. Besides, the Ki is 259 nM in assay [2], 1860 nM in assay [3] (read-out: Ki) and “Not Active” in assay [5].

Take `Cc1cccc(C)c1NC(=O)C1CCCCN1C` (stereo not given) [MEPIVACAINE]: the IC50 result (in assay [1]; in assay [2] (cho-k1); in assay [3] (mdck); in assay [4] (cho-k1); at Histamine H2 receptor (cho-k1); in assay [5]) was “Not Active” throughout. Moreover, in assay [5], the Ki result is “Not Active”.

Take `CN(C)C(=N)NC(=N)N` [METFORMIN]: the IC50 result (in assay [1]; in assay [2] (cho-k1); in assay [3] (mdck); in assay [4] (cho-k1); against Histamine H2 receptor (cho-k1); in assay [5]) was “Not Active” in each case. In addition, the Ki result in assay [5] is “Not Active”.

On to `CC(C)(C)NCC(O)COc1cccc2c1CC(O)C(O)C2` (stereo not given) [NADOLOL], for which the IC50 result (in assay [1]; in assay [2] (cho-k1); in assay [3] (mdck); in assay [4] (cho-k1); against Histamine H2 receptor (cho-k1); in assay [5]) was “Not Active” throughout. Moreover, the Ki entry in assay [5] is reported as “Not Active”.

For the molecule `C[C@]12CC[C@H]3[C@@H](CCC4=CC(=O)CC[C@@H]43)[C@@H]1CC[C@@H]2O` [NANDROLONE], the IC50 entry (in assay [1]; in assay [2] (cho-k1); in assay [3] (mdck); in assay [4] (cho-k1); against Histamine H2 receptor (cho-k1); in assay [5]) was “Not Active” in each case. Besides, the Ki entry in assay [5] was “Not Active”.

With `C[C@@H]1C/C=C/C=C/C=C/C=C/[C@H](O[C@@H]2O[C@H](C)[C@@H](O)[C@H](N)[C@@H]2O)C[C@@H]2O[C@](O)(C[C@@H](O)C[C@H]3O[C@@H]3/C=C/C(=O)O1)C[C@H](O)[C@H]2C(=O)O` [NATAMYCIN], the IC50 entry (in assay [1]; in assay [2] (cho-k1); in assay [3] (mdck); in assay [4] (cho-k1); against Histamine H2 receptor (cho-k1); in assay [5]) was “Not Active” each time. Besides, the Ki entry in assay [5] was “Not Active”.
